# According to PubChem BioAssay AID1963871 (Molecular Pharmacology Branch, DTP, NCI, 2024):
# Tested on: KRAS-mutant PDC multicell tumor spheroid viability
# Experiment: Anticancer human tumor 521955-158-R2-J5-PDC patient-derived pancreatic carcinoma cell line growth inhibition [KRAS2]
# Details: for IC50: curve of first compound; for viability, T/C: stronger effect = lower value
# Source text: Multicellular complex tumor spheroid response to RAS pathway inhibitors in combination with a targeted agents in patient-derived cell lines with oncogenic KRAS variants from multiple cancer types
# A high-throughput screen of multi-cell type tumor spheroids was designed to identify active combinations of targeted small molecules and KRAS pathway inhibitors. Complex spheroids include a stromal component modeled by human endothelial cells (HUVEC) and fibroblasts modeled by human mesenchymal stem cells (MSCs). The concentration ranges selected for each drug and investigational agent were based upon clinically achievable concentrations if the clinical Cmax of the agent was known.
# Compounds. The drugs and investigational agents: BI-3406 (NSC825286), BAY-293 (NSC824723), batoprotafib (TNO155; NSC825523), sotorasib (AMG 510; NSC818433), MRTX1257 (NSC819558), elimusertib (BAY 1895344; NSC800525), molibresib (GSK525762; NSC774829), temuterkib (LY3214996; NSC803410), venetoclax (NSC766270), alisertib (NSC759677), olaparib (NSC753686), talazoparib (NSC767125), erdafitinib (NSC781556), ipatasertib (NSC767898), cabozantinib (NSC761068), nintedanib (NSC756659), abemaciclib (NSC768073), docetaxel (NSC628503), trametinib (NSC758246), and sapanisertib (NSC764658) were obtained from the National Cancer Institute (NCI) Developmental Therapeutics Program Chemical Repository. The FDA-approved anticancer drug set is available from the Developmental Therapeutics Program. […] The stock solutions were prepared in dimethyl sulfoxide (DMSO, Sigma-Aldrich, St. Louis, MO, cat. D2650) at 800-fold the tested concentration and stored at -70 degrees C prior to their use. All drugs and investigational agents were tested over a range starting from a high concentration at or near the clinical Cmax and decreasing in half-log increments. If the clinical Cmax for an agent had not been determined, the highest concentration tested was 10 microM.
# Cell Culture. All cells were maintained in an incubator at 37 degrees C and 5% CO2 with 95% humidity. The PDC lines were cultured according to standard operating procedures established by the NCI PDMR (https://pdmr.cancer.gov/sops/default.htm). Briefly, all PDCs were thawed and cultured in Matrigel-coated flasks prepared with a working solution of 1X Ham's F-12 nutrient mix, without supplementation (Invitrogen, Waltham, MA, cat. 11765054), 100 U/mL penicillin-streptomycin (Invitrogen, cat. 15140122), and 2.5% Matrigel (Corning Inc., Corning, NY, cat. 354248) for the first three passages. All PDCs were cultured in complete DMEM/F-12 media containing advanced DMEM/F-12 (Invitrogen, cat. 12634028), 4.9% defined fetal bovine serum, heat inactivated (HyClone Laboratories Inc., Logan, UT, cat. SH30070.03HI), 389 ng/mL hydrocortisone (Sigma-Aldrich, cat. H4001), 9.7 ng/mL human EGF recombinant protein (Invitrogen, cat. PHG0313), 23.4 microg/mL adenine (Sigma-Aldrich, cat. A2786), 97.3 U/mL penicillin-streptomycin (Invitrogen, cat. 15140122), 1.9 mM L-glutamine (Invitrogen, cat. 25030081), and 9.7 microM Y-27632 dihydrochloride (Tocris Bioscience, Bristol, United Kingdom, cat. 1254). The PDCs were cultured in complete DMEM/F12 media without 9.7 microM Y-27632 dihydrochloride for at least two passages prior to the screen. The established cell line HOP-62 was cultured in RPMI 1640 medium, HEPES (Invitrogen, cat. 22400105) with 10% defined fetal bovine serum (HyClone Laboratories Inc., cat. SH30070.03) and 2 mM L-glutamine (Invitrogen, cat. 25030081). The pooled donor HUVEC were cultured in endothelial cell growth medium 2 (PromoCell, Heidelberg, Germany, cat. C-22011) and the hMSC were cultured in mesenchymal stem cell growth medium 2 (PromoCell, cat. C-28009). For all experiments, HUVEC and hMSC were used at passages </=5, while the malignant cell lines were used at passages </=15. […]
# [1] = second compound 0.1 µM, first compound 0.0316 µM
# [2] = second compound 0.1 µM, first compound 0.1 µM
# [3] = second compound 0.1 µM, first compound 0.316 µM
# [4] = second compound 0.1 µM, first compound 1 µM
# [5] = second compound 0.1 µM, first compound 3.16 µM
# [6] = second compound 0.1 µM, first compound 10 µM
# [7] = second compound 0.316 µM, first compound 0.0316 µM
# [8] = second compound 0.316 µM, first compound 0.1 µM
# [9] = second compound 0.316 µM, first compound 0.316 µM
# [10] = second compound 0.316 µM, first compound 1 µM
# [11] = second compound 0.316 µM, first compound 3.16 µM
# [12] = second compound 0.316 µM, first compound 10 µM
# [13] = second compound 1 µM, first compound 0.0316 µM
# [14] = second compound 1 µM, first compound 0.1 µM
# [15] = second compound 1 µM, first compound 0.316 µM
# [16] = second compound 1 µM, first compound 1 µM
# [17] = second compound 1 µM, first compound 3.16 µM
# [18] = second compound 1 µM, first compound 10 µM
# [19] = second compound 3.16 µM, first compound 0.0316 µM
# [20] = second compound 3.16 µM, first compound 0.1 µM
# [21] = second compound 3.16 µM, first compound 0.316 µM
# [22] = second compound 3.16 µM, first compound 1 µM
# [23] = second compound 3.16 µM, first compound 3.16 µM
# [24] = second compound 3.16 µM, first compound 10 µM
# [25] = second compound 10 µM, first compound 0.0316 µM
# [26] = second compound 10 µM, first compound 0.1 µM
# [27] = second compound 10 µM, first compound 0.316 µM
# [28] = second compound 10 µM, first compound 1 µM
# [29] = second compound 10 µM, first compound 3.16 µM
# [30] = second compound 10 µM, first compound 10 µM
# 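Note: viability read after seven days of drug exposure.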
smiles,measurement,setting,value
CC(C)NCC(C(=O)N1CCN(c2ncnc3c2C(C)CC3O)CC1)c1ccc(Cl)cc1 (stereo not given) + CC1OCC2(CCN(c3cnc(Sc4ccnc(N)c4Cl)c(N)n3)CC2)C1N,IC50,second compound 0.1 µM,> 10000 nM
same,IC50,second compound 0.316 µM,> 10000 nM
same,IC50,second compound 1 µM,1080 nM
same,IC50,second compound 3.16 µM,287 nM
same,IC50,second compound 10 µM,483 nM
same,"viability, T/C",[1],67.8%
same,"viability, T/C",[2],82.7%
same,"viability, T/C",[3],67.7%
same,"viability, T/C",[4],61.8%
same,"viability, T/C",[5],74.3%
same,"viability, T/C",[6],53.7%
same,"viability, T/C",[7],65.3%
same,"viability, T/C",[8],66.8%
same,"viability, T/C",[9],55.4%
same,"viability, T/C",[10],60.3%
same,"viability, T/C",[11],61.2%
same,"viability, T/C",[12],48.7%
same,"viability, T/C",[13],62%
same,"viability, T/C",[14],60.9%
same,"viability, T/C",[15],46.5%
same,"viability, T/C",[16],51.3%
same,"viability, T/C",[17],53.3%
same,"viability, T/C",[18],39.5%
same,"viability, T/C",[19],56.5%
same,"viability, T/C",[20],57.8%
same,"viability, T/C",[21],43.1%
same,"viability, T/C",[22],41.5%
same,"viability, T/C",[23],48.4%
same,"viability, T/C",[24],27.7%
same,"viability, T/C",[25],54.1%
same,"viability, T/C",[26],66.9%
same,"viability, T/C",[27],51.2%
same,"viability, T/C",[28],38%
same,"viability, T/C",[29],41.5%
same,"viability, T/C",[30],20.7%
COC(=O)c1ccc2c(C(=Nc3ccc(N(C)C(=O)CN4CCN(C)CC4)cc3)c3ccccc3)c(O)[nH]c2c1 + CNCc1ccccc1-c1csc(C(C)Nc2nc(C)nc3cc(OC)c(OC)cc23)c1,IC50,second compound 0.1 µM,2260 nM
same,IC50,second compound 0.316 µM,1800 nM
same,IC50,second compound 1 µM,1960 nM
same,IC50,second compound 3.16 µM,< 31.6 nM
same,IC50,second compound 10 µM,< 31.6 nM
same,"viability, T/C",[1],87.3%
same,"viability, T/C",[2],111%
same,"viability, T/C",[3],103%
same,"viability, T/C",[4],123%
same,"viability, T/C",[5],26.9%
same,"viability, T/C",[6],1.42%
same,"viability, T/C",[7],90%
same,"viability, T/C",[8],101%
same,"viability, T/C",[9],100%
same,"viability, T/C",[10],107%
same,"viability, T/C",[11],2.22%
same,"viability, T/C",[12],0.15%
same,"viability, T/C",[13],97.1%
same,"viability, T/C",[14],103%
same,"viability, T/C",[15],115%
same,"viability, T/C",[16],95.3%
same,"viability, T/C",[17],17.5%
same,"viability, T/C",[18],0.14%
same,"viability, T/C",[19],0.52%
same,"viability, T/C",[20],0.17%
same,"viability, T/C",[21],0.16%
same,"viability, T/C",[22],0.15%
same,"viability, T/C",[23],0.07%
same,"viability, T/C",[24],0.59%
same,"viability, T/C",[25],0.14%
same,"viability, T/C",[26],0.13%
same,"viability, T/C",[27],0.13%
same,"viability, T/C",[28],0.13%
same,"viability, T/C",[29],0.12%
same,"viability, T/C",[30],0.19%
CC(=O)Nc1cccc(-n2c(=O)n(C3CC3)c(=O)c3c(Nc4ccc(I)cc4F)n(C)c(=O)c(C)c32)c1 + C=CC(=O)N1CCN(c2nc(OCC3CCCN3C)nc3c2CCN(c2cccc4cccc(C)c24)C3)CC1CC#N,IC50,second compound 0.0316 µM,0.288 nM
same,IC50,second compound 0.1 µM,0.289 nM
same,IC50,second compound 0.316 µM,0.194 nM
same,IC50,second compound 1 µM,0.245 nM
same,IC50,second compound 3.16 µM,< 0.1 nM
same,"viability, T/C","second compound 0.0316 µM, first compound 0.0001 µM",74.2%
same,"viability, T/C","second compound 0.0316 µM, first compound 0.000316 µM",44.9%
same,"viability, T/C","second compound 0.0316 µM, first compound 0.001 µM",34.6%
same,"viability, T/C","second compound 0.0316 µM, first compound 0.00316 µM",26.5%
same,"viability, T/C","second compound 0.0316 µM, first compound 0.01 µM",20.1%
same,"viability, T/C","second compound 0.0316 µM, first compound 0.0316 µM",15%
same,"viability, T/C","second compound 0.1 µM, first compound 0.0001 µM",61.9%
same,"viability, T/C","second compound 0.1 µM, first compound 0.000316 µM",51.6%
same,"viability, T/C","second compound 0.1 µM, first compound 0.001 µM",30.3%
same,"viability, T/C","second compound 0.1 µM, first compound 0.00316 µM",23.8%
same,"viability, T/C","second compound 0.1 µM, first compound 0.01 µM",18.4%
same,"viability, T/C",[1],10.5%
same,"viability, T/C","second compound 0.316 µM, first compound 0.0001 µM",57.5%
same,"viability, T/C","second compound 0.316 µM, first compound 0.000316 µM",46.9%
same,"viability, T/C","second compound 0.316 µM, first compound 0.001 µM",27.5%
same,"viability, T/C","second compound 0.316 µM, first compound 0.00316 µM",21.7%
same,"viability, T/C","second compound 0.316 µM, first compound 0.01 µM",18.9%
same,"viability, T/C",[7],8.09%
same,"viability, T/C","second compound 1 µM, first compound 0.0001 µM",69.7%
same,"viability, T/C","second compound 1 µM, first compound 0.000316 µM",43.6%
same,"viability, T/C","second compound 1 µM, first compound 0.001 µM",27.8%
same,"viability, T/C","second compound 1 µM, first compound 0.00316 µM",24.3%
same,"viability, T/C","second compound 1 µM, first compound 0.01 µM",18.2%
same,"viability, T/C",[13],9.76%
same,"viability, T/C","second compound 3.16 µM, first compound 0.0001 µM",3.74%
same,"viability, T/C","second compound 3.16 µM, first compound 0.000316 µM",5.29%
same,"viability, T/C","second compound 3.16 µM, first compound 0.001 µM",0.31%
same,"viability, T/C","second compound 3.16 µM, first compound 0.00316 µM",1.92%
same,"viability, T/C","second compound 3.16 µM, first compound 0.01 µM",0.67%
same,"viability, T/C",[19],0.24%
CCNC(=O)CC1N=C(c2ccc(Cl)cc2)c2cc(OC)ccc2-n2c(C)nnc21 (stereo not given) + CC1OCC2(CCN(c3cnc(Sc4ccnc(N)c4Cl)c(N)n3)CC2)C1N,IC50,second compound 0.1 µM,289 nM
same,IC50,second compound 0.316 µM,172 nM
same,IC50,second compound 1 µM,127 nM
same,IC50,second compound 3.16 µM,132 nM
same,IC50,second compound 10 µM,92.9 nM
same,"viability, T/C",[1],71.5%
same,"viability, T/C",[2],71.2%
same,"viability, T/C",[3],47.3%
same,"viability, T/C",[4],33.8%
same,"viability, T/C",[5],26.5%
same,"viability, T/C",[6],28.7%
same,"viability, T/C",[7],76.3%
same,"viability, T/C",[8],61.1%
same,"viability, T/C",[9],36.9%
same,"viability, T/C",[10],29.7%
same,"viability, T/C",[11],23.6%
same,"viability, T/C",[12],22.6%
same,"viability, T/C",[13],66%
same,"viability, T/C",[14],51.5%
same,"viability, T/C",[15],40.4%
same,"viability, T/C",[16],25.7%
same,"viability, T/C",[17],19.6%
same,"viability, T/C",[18],20.8%
same,"viability, T/C",[19],65.8%
same,"viability, T/C",[20],52.2%
same,"viability, T/C",[21],40%
same,"viability, T/C",[22],23.5%
same,"viability, T/C",[23],20%
same,"viability, T/C",[24],20.4%
same,"viability, T/C",[25],60.7%
same,"viability, T/C",[26],47.8%
same,"viability, T/C",[27],35.7%
same,"viability, T/C",[28],20.6%
same,"viability, T/C",[29],15.9%
same,"viability, T/C",[30],16.9%
